Assays:
Assay in all cases: relative viability (nuclei count vs DMSO), 5 days (fraction); higher = more cells survive
[1] = compound: CC1(C)CNc2cc(NC(=O)c3cccnc3NCc3ccncc3)ccc21 [Motesanib] + CC(C)C[C@H](NC(=O)[C@H](Cc1ccccc1)NC(=O)c1cnccn1)B(O)O [Bortezomib] (partner 0.002 µM)
Outline: (§1)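 Dosing by pin tool came one day after lung cancer cell lines were seeded in 1536-well plates, using either one drug or a fixed anchor-drug dose plus five library-drug doses (not always all listed) in √10 steps. After 5 days, nuclei were counted on 4× images. Relative viability is treated-well nuclei count divided by vehicle-well nuclei count, and values are medians of duplicate plates.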

[2] = compound: CC1(C)CNc2cc(NC(=O)c3cccnc3NCc3ccncc3)ccc21 [Motesanib] + C[C@]1(O)C[C@@H](c2nc(-c3ccc4ccc(-c5ccccc5)nc4c3)c3c(N)nccn32)C1 [Linsitinib] (partner 1 µM)
Outline: as §1

[3] = compound: C[C@@]1(C(=O)Nc2ccc(F)nc2)CCCN1c1nc(Nc2cc(C3CC3)n[nH]2)c2cccn2n1 + CC(=O)c1c(C)c2cnc(Nc3ccc(N4CCNCC4)cn3)nc2n(C2CCCC2)c1=O [Palbociclib] (partner 0.5 µM)
Outline: as §1

[4] = compound: C[C@@]1(C(=O)Nc2ccc(F)nc2)CCCN1c1nc(Nc2cc(C3CC3)n[nH]2)c2cccn2n1 + Cc1nc(Nc2ncc(C(=O)Nc3c(C)cccc3Cl)s2)cc(N2CCN(CCO)CC2)n1 [Dasatinib] (partner 0.075 µM)
Outline: as §1

| Cell Line | relative viability ([1]; first compound 0.01 µM) | relative viability ([1]; first compound 0.03162 µM) | relative viability ([1]; first compound 0.1 µM) | relative viability ([1]; first compound 0.3162 µM) | relative viability ([1]; first compound 1 µM) | relative viability ([2]; first compound 0.01 µM) | relative viability ([2]; first compound 0.03162 µM) | relative viability ([2]; first compound 0.1 µM) | relative viability ([2]; first compound 0.3162 µM) | relative viability ([2]; first compound 1 µM) | relative viability ([3]; first compound 0.04 µM) | relative viability ([3]; first compound 0.1265 µM) | relative viability ([3]; first compound 0.4 µM) | relative viability ([3]; first compound 1.265 µM) | relative viability ([4]; first compound 0.04 µM) | relative viability ([4]; first compound 0.1265 µM) | relative viability ([4]; first compound 0.4 µM) | relative viability ([4]; first compound 1.265 µM) |
| --- | --- | --- | --- | --- | --- | --- | --- | --- | --- | --- | --- | --- | --- | --- | --- | --- | --- | --- |
| NCI-H2228 | 0.957 | 1.13 | 0.881 | 1.28 | 1.01 | 0.685 | 0.544 | 0.689 | 0.5 | 0.509 | 0.694 | 0.425 | 0.463 | 0.498 | 0.414 | 0.278 | 0.22 | 0.208 |
| NCI-H2347 | 1.08 | 0.574 | 1.08 | 0.799 | 1.05 | 0.985 | 1.01 | 1.06 | 1 | 1 | 0.405 | 0.415 | 0.386 | 0.436 | 0.289 | 0.288 | 0.343 | 0.189 |
| NCI-H2405 | 0.907 | 0.925 | 0.96 | 0.998 | 1.04 | – | 1 | 0.866 | 0.967 | 0.993 | 0.47 | 0.303 | 0.391 | 0.402 | 0.211 | 0.177 | 0.185 | 0.186 |
| NCI-H3122 | 1.04 | 0.967 | 1.04 | 1.12 | 1.01 | 0.986 | 0.961 | 0.991 | 1.01 | 0.965 | 0.158 | 0.183 | 0.171 | 0.185 | 0.581 | 0.786 | 0.348 | 0.677 |
| PC-3 [JPC-3] | 0.921 | 0.802 | 0.879 | 0.922 | 0.968 | 1.05 | 0.969 | 0.946 | 1.04 | 0.944 | 0.557 | 0.467 | 0.516 | 0.549 | 1.09 | 0.94 | 0.891 | 0.787 |
| PC-14 | 0.87 | 0.975 | 0.95 | 0.81 | 1.06 | 1.01 | 0.97 | 1.02 | 0.997 | 0.97 | 0.552 | 0.469 | 0.49 | 0.491 | 0.281 | 0.0303 | 0.0906 | 0.0823 |
| RERF-LC-KJ | 1.01 | 1.13 | 1.09 | 1.09 | 1.03 | 0.864 | 0.926 | 0.857 | 0.919 | 0.844 | 1.03 | 0.946 | 0.943 | 0.845 | 0.577 | 0.436 | 0.42 | 0.385 |
| SK-LU-1 | 1.11 | 1.48 | 1.3 | 1.38 | 1.58 | 1.14 | 1.01 | 1.2 | 1.1 | 1.32 | 0.391 | 0.358 | 0.341 | 0.37 | 0.116 | 0.112 | 0.0979 | 0.0968 |
| SW 1573 | 1.17 | 1.02 | 1.09 | 1.03 | 0.928 | 0.815 | 0.825 | 0.65 | 0.773 | 0.949 | 0.342 | 0.262 | 0.294 | 0.304 | 0.494 | 0.275 | 0.213 | 0.114 |

— the supplement of paper PMC10307832
